Experimental data: US5925571A, “Method of testing immune competency” (Oxi-Gene, Inc., priority 1997, dated 1999)

Legend:
[1] = system: ADPRT (adenosine diphosphate ribosyl transferase) in HML; experiment: PMA induced ADPRT activity in HML treated with HOCl or chloramine T (permeabilized cell radiometric assay); type: cell-based, human; settings: doses of 80 μM; 30 min at 37° C., then PMA 25 ng/ml for 30 min; versus zero-dose control; FIG. 2
Description: (§1) ADPRT assay.--The procedure was adapted from the permeabilized cell technique of Berger (Methods Cell Biol. 20:325-340, 1988) with modifications as previously described (Pero et al, Carcinogenesis 10:1657-64, 1989). Duplicate samples of 1×10^6 HML in the presence of 0 to 4×10^6 neutrophils were cultured in 1 ml of KRPG buffer for 30 min at 37° C. in the presence of PMA (phorbol-12-myristate-13-acetate, 25 ng/ml). After this co-incubation, the HML+ neutrophil mixtures were harvested by centrifugation, permeabilized, and ADPRT activity determined by radiometric procedure as described in detail elsewhere (Pero et al, Carcinogenesis 10:1657-64, 1989). […]
The effect of various dosage levels of chloramine T and HOCl on PMA induced ADPRT activity in HML was investigated utilizing the procedures described above for such tests, measuring the PMA induced ADPRT activity for HML subjected to the various dosages, and comparing the values obtained with measured control values of PMA induced ADPRT activity in HML from the same source but with zero dosages of chloramine T and HOCl.

[2] = system: ADPRT (ADP-ribosylation) in HML; experiment: HML + neutrophil co-culture exposed to PMA: HML ADP-ribosylation versus HOCl production; type: cell-based, human; settings: 1×10^6 HML with 0 to 4×10^6 neutrophils, PMA 25 ng/ml, 30 min at 37° C.; FIG. 1
Description: HOCl measurement.--Mixed cultures of HML+ neutrophils were assayed for the production of HOCl in the extracellular conditioned medium by removal of the cells by centrifugation following the incubation period, and immediately trapping the produced HOCl with taurine (20 mM). Taurine chloramine was then quantified spectrophotometrically by using the conversion of I^- to I2 (E=2.29×10^4 M^-1 cm^-1). Details of this procedure have been described by Weiss et al (J. Clin. Invest. 70:598-607, 1982).
as §1
This Example establishes that human phagocytes (i.e. neutrophils) produce physiologic relevant concentrations of endogenous ADPRT inhibitors. […] The respiratory burst induced by PMA exposure of neutrophils was monitored by HOCl production. […]

Row | Compound | inhibition of HML ADPRT activity [1] [%] | produced concentration sufficient to cause inhibition of HML ADP-ribosylation [2]
1 | OCl [HOCl] | > 80 | about 80 μM
2 | Cc1ccc(S(=O)(=O)[N-]Cl)cc1.[Na+] [N-chloramine, chloramine T] | > 80 | about 80 μM
